Measurements reported in patent publication US7807654B2, “Compositions and methods for treatment of mitochondrial diseases” (Wellstat Therapeutics Corporation, priority 1998, dated 2010).

Experiments:
[1] = tested on: mice infused with sodium azide; assay: Subcutaneous azide infusion: mortality, body weight, TUNEL staining; set-up: species or system C57/BL/6N mice; details: mouse, in vivo
3NP treated mice [2] = assay: 3-nitropropionic acid (3NP) model of epilepsy; format: in vivo, CD-1 mice; details: for Latency to clonic seizure: mean ± SEM
From the text: 3-nitropropionic acid (3NP) is a mitochondrial toxin that acts by inhibiting Complex II of the respiratory chain; it is used to induce brain lesions similar to those characteristic of Huntington's disease. Seizures can also be induced by the use of 3NP as a model of epilepsy and mitochondrial dysfunction. Urbanska et al., Eur J Pharmacol, 359: 55-8 (1998). Male CD-1 mice (National Cancer Institute, NCI, Frederick. Md.) weighing between […] were used throughout. Mice were divided into groups of 5 and animals for each group were randomly chosen from different cages to avoid possible influence of age. The mice were maintained on a 12 hr light dark cycle with free access to water and food. All experiments were performed during the light period between 9:00 and 16:00 hr. Mice (n=17-20) were given 160 mg/kg 3NP and followed for seizures. 3NP was made up at 16 mg or 18 mg/ml in sterile water (pH: 7.4). 3NP was administered i.p. in a volume of 0.1 m/10 g body weight. […] Seizures were assessed similar to the methods previously described (Roberts & Keith, J Pharmacol Exp Ther, 270:505-11, 1994; Urbanska et al., Eur J Pharmacol, 359:55-8, 1998).
Behavioral observations were performed within 120 min following application of 3-NP. Three major categories of convulsive seizure response were been considered and recorded: • 1. Clonic movements: the movements of the forelimbs accompanied by facial twitching; • 2. Explosive clonic movements: the movement of all four limbs involving running, jumping and bouncing; • 3. Tonic response: including tonic flexion and tonic extension of the all four limbs.
Mortality rate was evaluated at 120 min after 3NP injection.

MPTP treated mice [3] = assay: MPTP model of Parkinson's disease, second study; format: in vivo, C57/BL6 mice; details: MPTP b.i.d. for 2 days, sacrificed on day 9, mean ± SEM
Description: A second study using MPTP (25 mg/kg i.p. b.i.d. for 2 days) was performed. […] TAU or vehicle was given orally (dose of TAU=4 g/kg bw b.i.d.) starting the day before MPTP administration and ending on day 8. Mice were sacrificed on day 9.

taxol-treated mice = assay: Taxol-induced neuropathy, tail-flick latency; format: in vivo; details: nine days after initiation of taxol 21.6 mg/kg/day i.p. for 6 days; oral triacetyluridine 4000 mg/kg b.i.d.
Description: Two groups of 10 mice each were treated with taxol, 21.6 mg/kg/day for 6 consecutive days by intraperitoneal injection. An additional group of 10 mice received injections of vehicle alone. One of the groups of taxol-treated mice received oral triacetyluridine, 4000 mg/kg b.i.d. Nine days after the initiation of taxol treatments, nociceptive sensory deficits were tested by determining tail-flick latency after exposure of the tip of the tail to focused thermal radiation with an infrared heat lamp. In this system, delays in the tail-flick response to radiant heat correlate with sensory nerve deficits.

[4] = tested on: child with epilepsy, ataxia, language delay, fat intolerance, dicarboxylic aciduria; assay: Treatment of developmental delay (case, Example 4); format: in vivo, human; details: daily dose of 0.1 to 0.3 g/kg/day
Description: A child with epilepsy, ataxia, language delay, and fat intolerance, and dicarboxylic aciduria was treated with triacetyluridine at a daily dose of 0.1 to 0.3 g/kg/day.

MPTP treated mice [5] = assay: MPTP model of Parkinson's disease, first study
3NP treated mice [6] = assay: 3-nitropropionic acid (3NP) model of Huntington's disease; format: in vivo, Swiss mice; details: at anytime during the study
Description: Male 6-8 month old Swiss mice (National Cancer Institute; NCI, Frederick, Md.) were treated with 3NP (65 mg/kg i.p.) daily for 4 days to induce mortality, neuronal cell loss and behavioral impairment with n=8/group. […] On day 9, the mice were perfuse fixed with 10% buffered formalin and processed for silver staining to detect neuronal damage. […] There was no mortality in the 3NP+TAU group, but 3 of 8 mice died in the vehicle+3NP group.
Behavioral scoring of the 3NP treated mice was to determine whether there was any motor impairment at anytime during the study. There were 88% of the control+3NP treated mice with behavioral impairment indicated by gross observation. A decreased incidence of impairment of only 50% was found in the TAU+3NP treated mice.
The silver staining was analyzed by a pathologist blinded to the identity of tissue samples. […] However, in the control+3NP treated mice, silver staining of synaptic terminals in the striatal area (caudate/putamen area) and substantia nigra was pronounced. Silver impregnation of axons and/or synaptic terminals in the thalamus, deep mesencephalon and/or reticular formation (medulla) was also found in […] of the control+3NP treated mice. The substantia nigra projects to the striatum and these areas are especially vulnerable to damage by 3NP. The damage to the substantia nigra and striatum was prevented by TAU.

[7] = tested on: mice given intrastriatal QA; assay: Quinolinic acid (QA) model of excitotoxicity; format: in vivo, Swiss mice; details: TAU 4 g/kg bw p.o. b.i.d.
[8] = 160 mg/kg 3NP i.p., TAU 4 g/kg p.o. 2 hours prior, within 120 min

Compound: CC(=O)OC[C@H]1O[C@@H](n2ccc(=O)[nH]c2=O)[C@H](OC(C)=O)[C@@H]1OC(C)=O [TAU, triacetyluridine]
- mortality due to 60 μg/hr azide infusion [1]: 30%
- Latency to clonic seizure (3NP treated mice [2]; 160 mg/kg 3NP i.p., TAU 4 g/kg p.o. 2 hours prior): 40.8 min
- Latency to clonic seizure (3NP treated mice [2]; 160 mg/kg 3NP i.p., TAU 4 g/kg p.o. 2 hours prior, listed as TAU + 3NP): 40.8 ± 4.9 min
- % Clonic seizures (3NP treated mice [2]; [8]): 70.6%
- % Running seizures (3NP treated mice [2]; [8]): 5.9%
- % Mortality (3NP treated mice [2]; at 120 min after 3NP injection): 11.8%
- Striatal DA, MPTP-treated mice (MPTP treated mice [3]): 26.7 ± 0.9 ng DA/mg protein
- Tail flick latency (taxol-treated mice): 11.9 ± 0.7 s
- decline in seizure frequency [4]: 50%
- mortality (MPTP treated mice [5]; MPTP 30 mg/kg i.p. b.i.d. for 1.5 days, TAU 4 g/kg p.o. b.i.d.): 28.6%
- Striatal DA, MPTP-treated mice (MPTP treated mice [5]; first study, eight days after stopping MPTP, mean ± SEM): 37.9 ± 7.4 ng DA/mg protein
- mice with behavioral (motor) impairment by gross observation (3NP treated mice [6]): 50%
- percent of mice surviving the 7 days ([7]; 50 nmoles QA bilaterally in striatum): 73%
- percent of mice surviving the 7 days ([7]; 100 nmoles QA bilaterally in striatum): 19%
